Reference: patent US20140050754A1, “IMMUNOGENIC CHIKUNGUNYA VIRUS PEPTIDES” (priority 2010, published 2014)

What was measured:
[1] = tested on: E2EP3-specific IgG3 antibodies in pooled patients' plasma; test: Affinity depletion of anti-E2EP3 antibodies, read by E2EP3 specific peptide-based ELISA; assay type: binding, human; settings: pooled plasma median 10 days pio, relative to non-depleted samples
Description: (§1) For affinity depletion of human anti-E2EP3 antibodies, synthetic biotinylated E2EP3 peptide (EMC microcollections GmbH) was added at 450 ng/well to streptavidin-coated plates (Pierce) and incubated at room temperature for about 1 hour in PBS containing 0.1% Tween-20 (0.1% PBST). Human plasma samples were added and incubated for about 25 minutes at room temperature for absorption. The unbound portion was collected after 21 rounds of absorption. ELISA analysis was performed to verify the levels of the antibodies during affinity depletion.
Plasma samples (Median 10 days pio) were incubated with E2EP3 (K3, N5, K10), E2EP3 with double alanine substitution at lysine residues (K3A, N5, K10A) or triple alanine substitution at lysine and asparagine (K3A, N5A, K10A) peptides. E2EP3 specific peptide-based ELISA was performed to measure the depletion efficiency. Outputs were expressed as percentage control IgG3 titer from non-depleted samples. Data were presented as mean±SD. Examples were performed in triplicates.

[2] = tested on: anti-CHIKV IgG3 antibodies in pooled patients' plasma; test: Affinity depletion of anti-E2EP3 antibodies, read by virion-based ELISA; assay type: binding, human; settings: pooled plasma median 10 days pio, whole virus ELISA, relative to non-depleted samples
Description: […]; 50 μl/well). Wells were blocked with PBST-milk (PBS, 0.05% Tween 20, 5% non-fat milk) and plates were incubated for about 1.5 hours at about 37° C. Plasma samples were then diluted 1:500, 1:2000 in PBST-milk and incubated 1 hour at about 37° C. HRP-conjugated mouse anti-human IgG, IgG1, IgG2, IgG3, IgG4 and IgM (Molecular Probes) were used to detect human antibodies bound to virus-coated wells. Reactions were developed using TMB substrate (Sigma-Aldrich) and stopped with stopping reagent (Sigma-Aldrich). The absorbance was measured at 450 nm. Healthy donor samples were used as controls. ELISA determinations were done in duplicates and the values plotted as means±standard error means (SEM).
as §1
In FIG. 9(c), depleted samples as described in FIG. 9(b) were subjected to anti-CHIKV IgG3 antibodies detection. Virion-based ELISA was performed as described to measure the depletion efficiency. Outputs were expressed as percentage control IgG3 titer from non-depleted samples. Data were presented as mean±SD. Examples were performed in triplicates.

[3] = tested on: CHIKV (SGP11) infection of HEK 293T cells; test: Affinity depletion of anti-E2EP3 antibodies, read by in vitro neutralization assay; assay type: cell-based, Chikungunya virus; settings: plasma 1:500; about 20% with non-depleted plasma
Description: (§2) Neutralizing activity of CHIKV-infected patient samples were test in triplicates and were analyzed by immunofluorescence-based cell infection assay in HEK 293T cells, using Singapore strain CHIKV (SGP11). CHIKV were mixed at MOI 10 with diluted (1:100, 500 or 1,000) heat-inactivated human plasma and incubated for 2 hours at about 37° C. with gentle agitation (350 rpm). Virus-antibody mixtures were then added to HEK 293T cells seeded in 96-well plates and incubated for 1.5 hours at about 37° C. Virus inoculums (medium) were removed, and cells were replenished with DMEM medium supplied with 5% FBS and incubated for about 6 hours at about 37° C. before fixation with 4% paraformaldehyde followed by immunofluorescence quantification using the Cellomics ArrayScan V. The Cellomics ArrayScan. V was used as a complementary means of assessing neutralization capabilities of patients' plasma (same set-up as mentioned above), but involves an assessment endpoint at 6 hours post-infection (pi) to capture possible early protective responses against virus infection. Percentage infectivity was detected with High Content Screening and was calculated according to the equation: % Infectivity=100×(% responder from sero-neutralization group/% responder from virus infection group).
as §1
In FIG. 9(d), in vitro neutralizing activity of anti-E2EP3 antibodies against CHIKV-infected patients' plasma samples was observed. […] Outputs were expressed as percentage control infection. […]

[4] = tested on: CHIKV (SGP11) infection of HEK 293T cells; test: Peptide blocking assay with human plasma followed by sero-neutralization assay; assay type: cell-based, Chikungunya virus; settings: patients' plasma pools 1:500; 20% without peptide
Description: as §2, with “group). […]” for “group).”
Outputs were expressed as percentage control infection. […]

[5] = tested on: CHIKV infection of HEK 293T cells; test: Peptide blocking assay with NHP plasma followed by in vitro neutralization assay; assay type: cell-based, Chikungunya virus; settings: NHP plasma dilution series 1:100 to 1:3200, compared to untreated plasma
[6] = tested on: C57BL/6J mice; test: KLH-E2EP3 vaccination of mice: E2EP3 specific peptide-based ELISA; assay type: in vivo; settings: KLH-linked E2EP3 with CFA/IFA
Description: (§3) Lyophilized KLH-E2EP3 peptide was dissolved in DMSO (Sigma-Aldrich) to a working concentration of 5 mg/mL. Three-weeks old, female, C57BL/6J (sample size, n=7) were vaccinated subcutaneously in the abdominal flank with 100 μg of KLH-E2EP3 peptide prepared in 100 μl emulsion with 50% Complete Freund's Adjuvant (CFA) (Sigma-Aldrich) in PBS. Vaccinated mice were further boosted another two times at day 14 and day 21 with 50 μg of the peptide prepared in Incomplete Freund's Adjuvant (IFA) (Sigma-Aldrich). Control mice (n=7) were vaccinated with PBS/CFA and PBS/IFA on first vaccination and subsequent booster shots respectively. […] Viremia and degree of inflammation were monitored. […] Hind footpads of mice were measured daily using a vernier calliper from day 0 to day 14 post-infection. Measurements were done for the height (thickness) and the breadth of the foot and quantified as [height×breadth]. Degree of inflammation was expressed as relative increase in footpad size as compared to pre-infection with the following formula: [(day x−day 0)÷day 0] where x is the footpad measurements for each respective day post-infection.
Importantly, the sera obtained at 27 days post-vaccination were able to neutralize CHIKV-infection in vitro. In FIGS. 17(a) and 17(b), mouse anti-E2EP3 IgG antibodies were detected after the second and third vaccination. All outputs were expressed as mean±SD. […]

[7] = tested on: CHIKV infection in vitro; test: In vitro neutralizing activity of E2EP3-vaccinated mouse sera; assay type: cell-based, Chikungunya virus; settings: sera 27 days post-vaccination, dilution 1:100
Description: as §2, with “V was used as a complementary means of assessing neutralization capabilities of patients' plasma (same set-up as mentioned above), but involves an assessment endpoint at 6 hours post-infection (pi) to capture possible early protective responses against virus infection.” left out
Lyophilized KLH-E2EP3 peptide was dissolved in DMSO (Sigma-Aldrich) to a working concentration of 5 mg/mL. […] Viremia and degree of inflammation were monitored. […] Hind footpads of mice were measured daily using a vernier calliper from day 0 to day 14 post-infection. Measurements were done for the height (thickness) and the breadth of the foot and quantified as [height×breadth]. […]

[8] = tested on: CHIKV (SGP11); test: CHIKV challenge of vaccinated mice: viremia by virus plaque assay; assay type: in vivo; settings: 2 days post-challenge, challenge 30 days post-vaccination with 10^6 PFU s.c.; PBS control 4,500
Description: as §3
(§4) Mice were immunized with E2EP3 peptide complex to KLH or PBS Control emulsified with Complete Freund's Adjuvant (CFA) subcutaneously, and were boosted two more times with Incomplete Freund's Adjuvant (IFA). […] Outputs were expressed as percentage infection relative to PBS Control. […]

[9] = tested on: CHIKV (SGP11); test: CHIKV challenge of vaccinated mice: footpad swelling (inflammation); assay type: in vivo; settings: day 0 to day 14 post-challenge
Description: as §3, §4

## K3A/K10A (STADNFNVYAATRPYLAHC)
[1]
  E2EP3-specific IgG3 depleted from patients' plasma by surface-bound peptide: 30%
[2]
  reduction of total anti-CHIKV IgG3 titer after depletion with peptide: 40%
[3]
  virus infectivity (percentage control infection) with peptide-depleted plasma: only a gradual decrease of the neutralizing efficacy

## K3A/N5A/K10A (STADAFNVYAATRPYLAHC)
[1]
  E2EP3-specific IgG3 depleted from patients' plasma by surface-bound peptide: 15%
[2]
  reduction of total anti-CHIKV IgG3 titer after depletion with peptide: 20%
[3]
  virus infectivity (percentage control infection) with peptide-depleted plasma: only a gradual decrease of the neutralizing efficacy

## STKDNFNVYKATRPYLAHC [E2EP3]
[4]
  CHIKV infection (percentage control infection) after blocking with soluble E2EP3 peptide: ~40%
[5]
  effect of soluble peptide on neutralization by CHIKV-infected NHP plasma: abrogated the inhibitory effect of monkey plasma samples significantly
[2]
  reduction of total anti-CHIKV IgG3 titer after depletion with peptide: ~80%
[3]
  virus infectivity (percentage control infection) with peptide-depleted plasma: more than 50%
[6]; 19 days post-vaccination, after 1st boost
  anti-E2EP3 IgG titer: Significant anti-E2EP3 titer
[6]; 27 days post-vaccination, after 2nd boost
  anti-E2EP3 IgG titer: further increased
[7]
  reduction of infectivity compared to the PBS-vaccinated control group: approximately 40%
[8]
  CHIKV viremia: 2,000 pfu/mL
[9]
  maximal footpad swelling of PBS-vaccinated group relative to E2EP3-vaccinated group: more than twice
